# “Also recorded” adds a separate entry of the source.
# Assays:
# severe COVID-19 = test: Example 2: multicenter observational retrospective cohort study, FIASMA medication use at baseline and intubation or death in patients hospitalized for severe COVID-19; type: in vivo, human; details: vs no FIASMA medication
# Excerpt: We included all adults aged 18 years or over who have been hospitalized in these medical centers for severe COVID-19. COVID-19 was ascertained by a positive reverse-transcriptase-polymerase-chain-reaction (RT-PCR) test from analysis of nasopharyngeal or oropharyngeal swab specimens. Severe COVID-19 at admission was defined as having at least one of the following criteria: respiratory rate > 24 breaths/min or < 12 breaths/min, resting peripheral capillary oxygen saturation in ambient air < 90%, temperature > 40° C., systolic blood pressure < 100 mm Hg or high lactate levels. AP-HP clinical Data Warehouse initiatives ensure patient information and informed consent regarding the different approved studies through a transparency portal in accordance with European Regulation on data protection and authorization n°1980120 from National Commission for Information Technology and Civil Liberties (CNIL).
# We used data from the AP-HP Health Data Warehouse (‘Entrepôt de Données de Santé (EDS)’). This warehouse contains all available clinical data on all inpatient visits for COVID-19 to any Greater Paris University hospital. The data included patient demographic characteristics, vital signs, laboratory test and RT-PCR test results, medication administration data, medication lists during current and past hospitalizations in AP-HP hospitals, current diagnoses, discharge disposition, and death certificates.
# We obtained the following data for each patient at the time of the hospitalization: sex; age, which was categorized into 4 classes based on the OpenSAFELY study results (i.e. 18-50, 51-70, 71-80, 81+); hospital, which was categorized into 4 classes following the administrative clustering of AP-HP hospitals in Paris and its suburbs based on their geographical location (i.e., AP-HP Centre - Paris University, Henri Mondor University Hospitals and at home hospitalization; AP-HP Nord and Hôpitaux Universitaires Paris Seine-Saint-Denis; AP-HP Paris Saclay University; and AP-HP Sorbonne University); obesity, which was defined as having a body mass index higher than 30 kg/m^2 or an International Statistical Classification of Diseases and Related Health Problems (ICD-10) diagnosis code for obesity (E66.0, E66.1, E66.2, E66.8, E66.9); self-reported current smoking status; and any medication prescribed according to compassionate use or as part of a clinical trial (e.g. hydroxychloroquine, azithromycin, remdesivir, tocilizumab, sarilumab, or dexamethasone). To take into account possible confounding by indication bias for FIASMA medication, we recorded whether patients had any current diagnosis, based on ICD-10 diagnosis codes, for neoplasms and diseases of the blood (C00-D89); mental disorders (F01-F99); diseases of the nervous system (G00-G99); cardiovascular disorders (I00-I99); respiratory disorders (J00-J99); digestive disorders (K00-K95); dermatological disorders (L00-L99); diseases of the musculoskeletal system (M00-M99); diseases of the genitourinary system (N00-N99); endocrine disorders (E00-E89); and eye-ear-nose-throat disorders (H00-H95).
# All medical notes and prescriptions are computerized in Greater Paris University hospitals. Medications including their dosage, frequency, date, and mode of administration were identified from medication administration data or scanned handwritten medical prescriptions, through two deep learning models based on BERT contextual embeddings, one for the medications and another for their mode of administration. The model was trained on the APmed corpus, a previously annotated dataset for this task. Extracted medications names were then normalized to the Anatomical Therapeutic Chemical (ATC) terminology using approximate string matching.
# FIASMA medication use was defined as receiving at least one FIASMA medication at study baseline, i.e. within the first 24 hours of hospital admission, and before the end of the index hospitalization, intubation or death.
# [1] = target: T1, acid sphingomyelinase (ASM) (Homo sapiens, UniProt P17405); details: cited from earlier work
# T1 sequence (P17405 47-631): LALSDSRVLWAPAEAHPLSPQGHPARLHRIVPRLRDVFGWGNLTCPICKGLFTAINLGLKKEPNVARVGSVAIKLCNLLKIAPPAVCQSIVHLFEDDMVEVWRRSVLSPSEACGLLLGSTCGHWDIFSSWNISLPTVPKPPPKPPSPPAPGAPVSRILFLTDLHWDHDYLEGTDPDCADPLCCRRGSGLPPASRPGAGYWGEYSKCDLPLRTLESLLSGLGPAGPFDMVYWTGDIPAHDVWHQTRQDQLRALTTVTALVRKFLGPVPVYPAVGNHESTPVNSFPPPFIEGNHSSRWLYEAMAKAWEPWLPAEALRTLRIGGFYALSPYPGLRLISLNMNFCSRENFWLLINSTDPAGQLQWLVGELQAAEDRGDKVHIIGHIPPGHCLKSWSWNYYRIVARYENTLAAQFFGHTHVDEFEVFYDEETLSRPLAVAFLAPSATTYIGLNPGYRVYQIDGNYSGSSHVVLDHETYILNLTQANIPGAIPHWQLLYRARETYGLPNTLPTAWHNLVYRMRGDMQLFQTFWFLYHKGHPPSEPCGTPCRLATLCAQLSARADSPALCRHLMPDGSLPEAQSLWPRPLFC
# Sigma-1 receptors (S1R) = Sigma-1 receptors (S1R) (Homo sapiens, UniProt Q99720); details: cited from earlier work
# glia activation = details: dependent on glia activation; cited from earlier work
# SARS-CoV-2 [2] = details: in vitro; cited from earlier work
# SARS-CoV-2 [3] = details: cited from earlier work
# [4] = system: ceramide-enriched membrane domains; details: in vitro; cited from earlier work
# COVID-19 = details: human, in vivo; cited from earlier work
# Sequence of Sigma-1 receptors (S1R) (Q99720 whole entry): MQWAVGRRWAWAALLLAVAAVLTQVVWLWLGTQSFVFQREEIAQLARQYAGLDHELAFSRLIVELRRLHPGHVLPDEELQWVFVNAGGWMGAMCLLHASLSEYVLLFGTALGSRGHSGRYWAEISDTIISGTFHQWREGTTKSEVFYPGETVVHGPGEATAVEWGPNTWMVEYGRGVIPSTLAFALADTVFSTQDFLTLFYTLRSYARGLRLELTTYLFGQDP
SMILES,Association of use at baseline with risk of intubation or death (in words) (severe COVID-19),In vitro inhibition of acid sphingomyelinase (in words) [1],Affinity for Sigma-1 receptors (in words) (Sigma-1 receptors (S1R)),also measured
"CCCCc1oc2ccccc2c1C(=O)c1cc(I)c(OCCN(CC)CC)c(I)c1 [Amiodarone, amiodarone]",effective preventive and curative treatments for reducing risk of death or intubation,–,–,–
"O=C1CCc2ccc(OCCCCN3CCN(c4cccc(Cl)c4Cl)CC3)cc2N1 [Aripiprazole, aripiprazole]",effective preventive and curative treatments for reducing risk of death or intubation,in vitro inhibit acid sphingomyelinase with varying degrees,low or no affinity for S1R,–
"CN(C)CCCN1c2ccccc2Sc2ccc(Cl)cc21 [Chlorpromazine, chlorpromazine]",effective preventive and curative treatments for reducing risk of death or intubation,in vitro inhibit acid sphingomyelinase with varying degrees,low or no affinity for S1R,Anti-inflammatory effect (in words) (glia activation): anti-inflammatory effect was observed
"Clc1ccc2c(c1)CCc1cccnc1C2=C1CCNCC1 [Desloratadine, desloratadine]",effective preventive and curative treatments for reducing risk of death or intubation,–,–,–
"CNCC[C@H](Oc1cccc2ccccc12)c1cccs1 [Duloxetine, duloxetine]",–,in vitro inhibit acid sphingomyelinase with varying degrees,low or no affinity for S1R,–
"CN(C)C(=O)C(CCN1CCC(O)(c2ccc(Cl)cc2)CC1)(c1ccccc1)c1ccccc1 [Loperamide, loperamide]",effective preventive and curative treatments for reducing risk of death or intubation,in vitro inhibit acid sphingomyelinase with varying degrees,–,–
"Fc1ccc([C@@H]2CCNC[C@H]2COc2ccc3c(c2)OCO3)cc1 [Paroxetine, paroxetine]",–,in vitro inhibit acid sphingomyelinase with varying degrees,low or no affinity for S1R,Inhibition of viral replication (in words) (SARS-CoV-2 [2]): inhibition of viral replication was not observed
"CN[C@H]1CC[C@@H](c2ccc(Cl)c(Cl)c2)c2ccccc21 [Sertraline, sertraline]",–,inhibited ASM; also recorded: in vitro inhibit acid sphingomyelinase with varying degrees,low or no affinity for S1R,Infection of Vero cells with SARS-CoV-2 (in words) (SARS-CoV-2 [3]): prevented Vero cells from being infected with SARS-CoV-2; Formation of ceramide-enriched membrane domains (in words) [4]: inhibited ASM and the formation of ceramide-enriched membrane domains
CC[C@H]1OC(=O)[C@H](C)[C@@H](O[C@H]2C[C@@](C)(OC)[C@@H](O)[C@H](C)O2)[C@H](C)[C@@H](O[C@@H]2O[C@H](C)C[C@H](N(C)C)[C@H]2O)[C@](C)(O)C[C@@H](C)CN(C)[C@H](C)[C@@H](O)[C@]1(C)O [azithromycin],–,–,–,Effect on mortality in patients hospitalized with COVID-19 (in words) (COVID-19): non-significant effect on mortality
CNCCCN1c2ccccc2CCc2ccccc21 [desipramine],–,inhibited ASM; also recorded: in vitro inhibit acid sphingomyelinase with varying degrees,–,Infection of Vero cells with SARS-CoV-2 (in words) (SARS-CoV-2 [3]): prevented Vero cells from being infected with SARS-CoV-2; Formation of ceramide-enriched membrane domains (in words) [4]: inhibited ASM and the formation of ceramide-enriched membrane domains
O=C(CCCN1CCC(O)(c2ccc(Cl)cc2)CC1)c1ccc(F)cc1 [haloperidol],–,–,–,Anti-inflammatory effect (in words) (glia activation): anti-inflammatory effect was observed
CCN(CCO)CCCC(C)Nc1ccnc2cc(Cl)ccc12 (stereo not drawn) [hydroxychloroquine],–,–,–,Effect on mortality in patients hospitalized with COVID-19 (in words) (COVID-19): non-significant effect on mortality
CN(C)CCCN1c2ccccc2CCc2ccccc21 [imipramine],–,inhibited ASM; also recorded: in vitro inhibit acid sphingomyelinase with varying degrees,–,Infection of Vero cells with SARS-CoV-2 (in words) (SARS-CoV-2 [3]): prevented Vero cells from being infected with SARS-CoV-2; Formation of ceramide-enriched membrane domains (in words) [4]: inhibited ASM and the formation of ceramide-enriched membrane domains
CNCCCC12CCC(c3ccccc31)c1ccccc12 [maprotiline],–,inhibited ASM; also recorded: in vitro inhibit acid sphingomyelinase with varying degrees,–,Infection of Vero cells with SARS-CoV-2 (in words) (SARS-CoV-2 [3]): prevented Vero cells from being infected with SARS-CoV-2; Formation of ceramide-enriched membrane domains (in words) [4]: inhibited ASM and the formation of ceramide-enriched membrane domains
Cc1nc2n(c(=O)c1CCN1CCC(c3noc4cc(F)ccc34)CC1)CCCC2 [risperidone],–,–,–,Anti-inflammatory effect (in words) (glia activation): anti-inflammatory effect was observed

# Reference: US20230321008A1, “INHIBITORS OF ACID SPHINGOMYELINASE FOR PREVENTING AND TREATING THE COVID-19 DISEASE” (priority 2020, published 2023)
